Results from paper PMC7618104, “The GLP-1 analogue, exendin-4, improves bone material properties and strength through a central relay in ovariectomized mice” (American journal of physiology. Endocrinology and metabolism, 2025).

Legend:
[1] = test system: ovariectomized BALB/c mice; test: Tissue material strength of femur (from peak bending moment and geometry); assay type: in vivo, mouse (BALB/cJRj, female); conditions: 28 days, vs OVX+vehicle, n=8
Description: (§1) Eight animals were randomly assigned to each group.
The whole-bone strength of right femurs was assessed by 3-point bending in accordance with published guidelines ([34]). Three-point bending strength was measured with a constant span length of 10 mm. Bones were tested in the antero-posterior axis with the posterior surface facing upward, centered on the support and the pressing force was applied vertically to the midshaft of the bone. Each bone was tested fully hydrated and at room temperature with a loading speed of 2 mm.min^-1 until failure with a 500 N load cell on an Instron 5942 device (Instron, Elancourt, France) and the load-displacement curve was recorded at a 100 Hz rate by the Bluehill 3 software (Instron). Ultimate load, ultimate displacement, stiffness and work to fracture were calculated as indicated in ([34]). The yield point was determined as the point at which a regression line that represents a 10% loss in stiffness crosses the load-displacement curve. Post-yield displacement was computed as the displacement between yielding and fracture. Peak bending moment was calculated as one-half the ultimate load multiplied by one-half the span length ([34]). The peak bending moment is related to bone tissue material properties and bone midshaft geometry by the following equation: M=σb×IML/cAP […]

[2] = test system: ovariectomized BALB/c mice; test: Bone ECM material evaluation by infrared microspectroscopy, midshaft femur; assay type: in vivo, mouse (BALB/cJRj, female); conditions: 28 days, n=8
Description: as §1
Distal halves of the right femur were embedded undecalcified in pMMA after dehydration and infiltration. One micrometer-thick cross-section of the midshaft femur was cut with an ultramicrotome (Leica EM UC7, Leica microsystems, Nanterre, France) and deposited on BaF2 windows. Spectral analysis was performed, using a Bruker Hyperion 3000 infrared microscope coupled to a Bruker Vertex 70 spectrometer equipped with a single element mercury cadmium telluride (MCT) detector, between double calcein labels, as indicator of bone formation site. Mid-infrared spectra were recorded at a resolution of 4 cm^-1 (Spectral range 850–2000 cm^-1), with 32 accumulations in transmission mode. Background spectra were collected under identical conditions from the same BaF2 windows at the beginning and end of each experiment to ensure instrument stability. Post-processing was performed using Matlab R2023b (The Mathworks, Natick, CA) and included Mie scattering correction, pMMA subtraction, normalization and denoising (Savitzky-Golay algorithm, degree 2, span 9) prior to second derivative spectroscopy and curve fitting routines as previously reported in detail ([35]). A signal-to-noise ratio was computed in the region 1850-2000 cm^-1 to ensure proper denoising and quality of FTIR spectra for subsequent second derivative and curve fitting. Bone ECM material parameters were: Phosphate/Amide ratio (area ratio of v1,v3 phosphate and amide I); mineral crystallinity/maturity (XST, area ratio of subbands located at subbands ~1030 cm^-1 and ~1020 cm^-1), carbonate/phosphate ratio (area ratio of v2 carbonate and v1,v3 phosphate), and collagen maturity (intensity ratio of subbands located at 1660 cm^-1/1690 cm^-1) ([35]).

[3] = test system: mouse bone marrow-derived mesenchymal stem cell (BMMSC) cultures; test: Bone marrow-derived mesenchymal stem cell osteogenic differentiation; assay type: cell-based, mouse (BALB/cJRj); conditions: 1 nM exendin-4, osteogenic medium, n = 5 independent experiments
Description: Femurs and tibias were isolated from 12-week-old female BALB/c mice (BALB/cJRj; Janvier Labs, Saint-Berthevin, France). Bones were rapidly dissected and cleared of soft tissue. The distal epiphyses were removed, and the marrow cavities were flushed with sterile PBS to collect bone marrow cells. Cells were suspended in growth medium composed of α-MEM supplemented with 10% fetal bovine serum, 100 U/mL penicillin-streptomycin, and 0.25 μL/mL Fungizone (Thermo Fisher Scientific), and seeded into 6-well plates at a density of 2.5 × 10^6 cells/well. Cultures were maintained at 37°C in a humidified incubator with 5% CO2. Cells remained undisturbed for 5 days to promote adherence. […]
On day 14, cells were washed with PBS and subjected to three freeze-thaw cycles. […] Enzymatic activity was measured using the fluorescent substrate 4-methylumbelliferyl phosphate (Sigma-Aldrich) as previously described ([38]).
On day 21, cells were fixed with 3.7% (w/v) formaldehyde in PBS for 10 min, rinsed with PBS, and stained with 1.5% (w/v) Alizarin Red S for 5 min. […] Bound dye was extracted using 10% acetic acid, neutralized with 10% ammonium hydroxide, and absorbance was measured at 550 nm using a spectrophotometer. […]

For exendin-4 [Ex-4], the “increase in tissue material strength” value ([1]; icv Ex-4 70 pmol/day, p=0.005) was 9%, the “increase in tissue material strength” value ([1]; s.c. Ex-4 ~700 pmol/day, p=0.043) was 11% and the “increase in collagen maturity (1660/1690 cm^-1 subband ratio)” value ([2]; icv Ex-4 70 pmol/day, OVX, p<0.001) was 22%. For the same substance, the “bone mineral (material level)” value ([2]; s.c. Ex-4 ~700 pmol/day, OVX) was “not affected”, the “increase in collagen maturity (1660/1690 cm^-1 subband ratio)” value ([2]; s.c. Ex-4 ~700 pmol/day, vs OVX+vehicle, p=0.005) was 18% and the “alkaline phosphatase (ALP) activity” value ([3]; day 14) was “did not result in any significant increase”. For the same substance, the “extracellular matrix mineralization (Alizarin Red S)” value ([3]; day 21) was “did not result in any significant increase”.
